# Several values for one entry are separate records, joined by “and”; a condition that tells them apart may be missing. Equal entries are not always repeated. Where two headings read alike, the source gives them in different places. Marks after values point to notes of the source that are not given here.
# Experiments:
# in vitro = details: PAMPA, pH 7.4
# Method: The test samples (0.05 mM test article in pH 7.4 buffer with 0.5% DMSO) were added in the donor compartment and were stirred using the Gutbox technology (Pion Inc.) to reduce the aqueous boundary layer. The test article concentrations in the donor and acceptor compartments were measured using a UV plate reader (Nano Quant, Infinite 200 PRO, Tecan Inc., Männedorf, Switzerland).
# [1] = PBPK model (GastroPlus): simulation and model parameters incl. permeability surface product and scaled metabolic kinetics, human; details: conversion to Others
# [2] = human, in vivo, po, cited from earlier work
# [3] = rats, acute toxicity test; ref Andrews et al., 1982; cited from earlier work
# [4] = mouse, pH 7.4
# Method: (§7) The incubation was carried out at 37°C for 15, 30, and 60 min. The reaction in plasma or liver microsomes was quenched by adding 200 μL of cold acetonitrile (containing 100 ng/mL tolbutamide as internal standard).
# (§8) The mc was the microsome concentration used in the incubation (0.5 mg/mL). The substrate disappearance half-life (t1/2) was estimated by regression analysis of the semi-logarithmic (ln Conc vs. time) plots. […] The Vmax, in vitro,app, PDN-total and Km for PDN depletion in liver microsomes were estimated by the Michaelis-Menten model using GraphPad Prism version 8.
# [5] = dog, in vivo; cited from earlier work
# [6] = PBPK model (GastroPlus): simulation and model parameters incl. permeability surface product and scaled metabolic kinetics, mouse; details: conversion to Others
# Method: (§1) CL in vitro,app expressed as mL/min/mg microsomes were scaled to the predicted CLintrinsic using scaling factor (SF), microsome level and liver weight as indicated below: CLintrinsic=CLin vitro,app×SF×liver weight×microsome level per gram liver
# (§2) All modeling and simulation were carried out using GastroPlus version 9.5 (Simulations Plus Inc., CA). Physiochemical parameters including blood-to-plasma ratio (Rbp), pKa, and logP were predicted by ADMET predictor (Simulations Plus Inc., CA). Physiologies of all species, including organ weights, volumes, tissue compositions, and blood perfusion rates, were generated by the program’s internal module. Tissue intracellular unbound fractions were generated by GastroPlus based on predicted or experimentally determined physiochemical and chemical-biological parameters including pKa, logP, plasma unbound fractions (Fup), Rbp, solubility, and PAMPA permeability. The PBPK model structure is illustrated in Figure 2 and its parameters are summarized in Supplementary Tables S3–6. The default absorption and dissolution model was applied and effective intestine permeability was predicted by a built-in correlation from the experimental PAMPA permeability result. Parameters including partition coefficients in tissue (Kp), CLintrinsic, and permeability surface area product (PStc) were estimated by fitting the model to experimental data using the optimization module in GastroPlus with objective function weights at 1/(y + ŷ)^2, where y is the observed value and ŷ is the predicted value.
# Model parameter estimation of all plasma-tissue partition coefficients (Kp) was performed simultaneously using both the IV and PO datasets. […] The experimentally determined pharmacokinetic profiles were compared with the model simulations.
# [7] = human; cited from earlier work
# [8] = cited from earlier work
# [9] = human, pH 7.4
# Method: as §7, §8
# [10] = PBPK model (GastroPlus): simulation and model parameters incl. permeability surface product and scaled metabolic kinetics, hamster; details: conversion to Others
# Method: as §1, §2
# Experimental measurements of hamster plasma pharmacokinetics and lung concentrations were used in the model validation.
# [11] = hamster, pH 7.4
# Method: as §7, §8
# UGT enzymes = details: cited from earlier work
# in vivo [12] = details: hamster, in vivo
# Method: For the IV group, a single bolus IV dose of 3 mg/kg of PDN was administered to 24 hamsters (3 hamsters per time point). For the PO group, a dose of 30 mg/kg of PDN was administered via oral gavage to 21 hamsters (3 hamsters per time point). The formulation used for both IV and PO was 20% HP-β-CD in water (0.6 mg/mL PDN for IV and 3 mg/mL for PO). All dosing solutions were freshly prepared on the day of dosing. […] After collection, tissues were weighed and frozen. All blood samples were centrifuged at 4°C to obtain plasma. Plasma samples were transferred to tubes preloaded with NaF (final concentration at 5 mM in 200 µL plasma) and stored at −80°C until analysis.
# (§3) For fat tissue, an additional 3-fold volume of acetonitrile was added to the water homogenate and was vortexed in a shaker for another 30 min.
# (§4) A 10 μ aliquot of samples, blank controls (blank plasma or tissue homogenates), quality controls (QC), and standards were added into 200 μ acetonitrile solution with 100 ng/mL tolbutamide (internal standard, IS). All samples were then thoroughly shaken for 5 min to precipitate proteins. The samples were centrifuged at 3000 rpm and 4°C for 30 min. The supernatant was injected for UPLC-MS/MS analysis.
# (§5) The mobile phase consisted of 0.1% formic acid in water (A) and 0.1% formic acid in acetonitrile (B), the flow rate was 600 μL/min. […] All analyses were carried out using a Waters Acquity I-Class UPLC interfaced with a Waters Xevo TQ-S mass spectrometer. The mass spectrometer multiple reaction monitoring (MRM) experiment was operated with an ESI source at negative mode with spray voltage of 1 kV, and temperature of 600°C. Both Q1 and Q3 were set at unit resolution. […] The correlation coefficients of the calibration curves were all greater than 0.99. […] The linear range, precision and accuracy of QCs in various tissues and plasma are shown in Supplementary Table S1 and Supplementary Table S2.
# (§6) The area under the concentration vs. time curve (AUC) was calculated using the linear trapezoidal method. The terminal rate constant (λ) was obtained from the slope of at least three data points of the apparent terminal phase of the log linear concentration vs. time curve. AUC0–∞ was estimated as the sum of the AUC0–t (where t is the time of the last measurable concentration) and Ct/λ. […] Bioavailability (F) was calculated using ratios of dose-normalized AUC of PO and IV administration.
# in vivo [13] = details: male, C57BL/6, mouse, in vivo
# Method: The in-life study (Animal Study Protocol Number: NIH ORS-51) was conducted at the NIH Animal Facility by the Division of Veterinary Resources (DVR, Bethesda, MD). In this study, 25–35 g male C57BL/6 mice (Charles River Laboratories, Frederick, MD) were used. For the IV groups, 66 mice (33 mice per dosing group, 3 mice per timepoint) were used for a single bolus IV dose of 3 or 10 mg/kg of PDN via tail vein injection. […] The IV and PO doses were selected to obtain a complete concentration profile in plasma and tissues, based on a preliminary study. Animals were not fasted in this study. […] All dosing solutions were freshly prepared on the day of dosing. At designated time points, blood samples were collected, and mice were euthanized with CO2 in accordance with NIH ARAC Guidelines after blood collection. The death was ensured by cervical dislocation or transthoracic puncture. Lung, liver, adipose, brain, heart, small intestine, kidney, skeletal muscle, and spleen samples were obtained from mice. […] Tissue samples were rinsed with cold saline, dried on filtrate paper, weighed, and snap frozen by placing into dry ice after collection. All samples were stored at −80°C until the analysis. All blood samples were collected in K2EDTA tubes and centrifuged at 3000 g for 10 min at 4°C to obtain plasma. Plasma samples were transferred to tubes preloaded with NaF (final concentration at 5 mM in 200 µL plasma) and stored at −80°C until analysis.
# as §3, §4, §5, §6
# [14] = cited from earlier work; remark: listed apart in the source
# [15] = rat, in vivo, cited from earlier work
# physchem = details: pH 7.4, aqueous buffer, kinetic from dmso stock
# Method: Samples were incubated at room temperature for 6 h and vacuum-filtered using Tecan Te-Vac to remove any precipitates. The concentration of the compound in the filtrate was measured via UV absorbance (λ: 250–498 nm). […] All compounds were tested in duplicates. The kinetic solubility (µg/mL) of compounds was calculated using the µSOL Evolution software.
# [16] = in vivo, predicted from in vitro liver parameters
# [17] = male, LVG golden Syrian, po, 30 mg/kg
structure (smiles),measurement,setting,value
"CNC(=C[N+](=O)[O-])NCCSCc1ccc(CN(C)C)o1 [Ranitidine, reference compound]",Papp at 0.05 mM,in vitro,< 10 nm/s
"O=C(Nc1ccc([N+](=O)[O-])cc1Cl)c1cc(Cl)ccc1O [Nc, Niclosamide, reference compound]",Liver Vmax,[1]; in vivo (scaled),0.0738 mg/s/mg microsomes
same,Gut Vmax,[1]; [16],0.0317 mg/s/mg microsomes
same,plasma Cmax,[2]; 500 mg,0.0357 to 0.182 µg/mL
same,"serum maximal concentration (Cmax), Nc equivalent",[2]; 2000 mg,0.25 to 6.0 µg/mL
same,median plasma Cmax,[2],0.665 µg/mL
same,oral LD50,[3],> 5000 mg/kg
same,Liver Vmax,[4],0.07474 mg/s/mg microsomes
same,oral bioavailability,[5],0.54%
same,Liver Vmax,[6]; in vivo (scaled),0.0949 mg/s/mg microsomes
same,Gut Vmax,[6]; [16],0.0408 mg/s/mg microsomes
same,Fup (unbound fraction in plasma),[7],0.16% (human) ^b
same,PAMPA permeability,[8],<1 ^b 10^−6 cm/s
same,Liver Vmax,[9],0.0581 mg/s/mg microsomes
same,Liver Vmax,[10]; in vivo (scaled),0.1463 mg/s/mg microsomes
same,Gut Vmax,[10]; [16],0.0629 mg/s/mg microsomes
same,Liver Vmax,[11],0.1152 mg/s/mg microsomes
same,Km,UGT enzymes,0.09 to 1.67 µM
same,"UGT-mediated hepatic CL in vitro,app",UGT enzymes; mouse,0.18-0.21 mL/min/mg microsomes
same,AUC0-∞ Observed,"in vivo [12]; iv, 3 mg/kg",1030 (98) h*ng/g
same,AUC0-∞ Observed,"in vivo [12]; po, 30 mg/kg",5020 (294) h*ng/g
same,AUC(0-inf),"in vivo [12]; male, LVG golden Syrian, iv, 3 mg/kg",0.203 µg·h/mL
same,AUC(0-inf),in vivo [12]; [17],1.89 µg·h/mL
same,Cmax,in vivo [12]; [17],1170 ng/g and 623 ng/mL
same,dose normalized plasma AUC0-∞ of Nc,in vivo [12]; [17],88 (h*ng/mL)/(mg/kg)
same,Tmax,"in vivo [12]; male, LVG golden Syrian, po, 30 mg/kg, Tmax Observed",1 h
same,half-life,"in vivo [12]; male, LVG golden Syrian, po, 30 mg/kg, t1/2 Observed",~1.9 h
same,AUC(0-inf),"in vivo [13]; iv, 3 mg/kg",0.577 µg·h/mL
same,AUC(0-inf),"in vivo [13]; iv, 10 mg/kg",1.39 µg·h/mL
same,AUC(0-inf),"in vivo [13]; po, 10 mg/kg",1.61 µg·h/mL
same,Cmax,"in vivo [13]; po, 10 mg/kg",0.346 µg/mL
same,dose-normalized AUC0-∞ of Nc,"in vivo [13]; po, 10 mg/kg",216 (h*ng/mL)/(mg/kg)
same,Fup (unbound fraction in plasma),[14],0.14% (rodent) ^b
same,plasma protein binding,[14],> 99.8%
same,oral bioavailability,[15]; po,5.5%
same,volume of distribution,[15],less than 0.4 L/kg
"CCCSc1ccc2nc(NC(=O)OC)[nH]c2c1 [Albendazole, reference compound]",solubility,physchem,< 0.001 mg/mL
"Nc1ccc(/N=N/c2ccccc2)c(N)n1 [Phenazolpyridine, reference compound]",solubility,physchem,0.026 mg/mL
